Values joined by “and” are separate entries in the source; they are usually repeats but may differ in a detail not shown here. Identical values can stand only once.

This experiment addresses T1, NS3 protease (dengue virus type 3, UniProt A0A0B5JFF1).
T1 sequence (A0A0B5JFF1 whole entry): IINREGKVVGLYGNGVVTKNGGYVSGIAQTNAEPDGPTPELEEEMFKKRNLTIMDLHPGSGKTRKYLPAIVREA
Briefly: Functional biochemical assay to identify treatments for viral infectious disease that targets Dengue virus type 3 NS2B-NS3 protease. Utilizing a direct enzyme activity measurement method, reading the fluorescence intensity is used to characterize the relative potency of inhibitors as IC50. Set-up: species or system Philippines/H87/1956.
One may read the IC50 as the concentration needed to halve the response being measured. Lower therefore signals inhibition by little substance. In turn, `CC(C)CNC(=O)c1cc(Cl)ccc1NS(=O)(=O)c1ccc(Oc2ccccc2Cl)cc1` had a concentration for half-maximal inhibition (IC50) of 12.1 µM.

In the case of `Cc1cccc(-c2nc3c(C(=O)Nc4ccc5c(c4)CNC5)cc(F)cc3[nH]2)c1`, the IC50 turned out to be 6.16 µM.

As to `CN1Cc2ccc(NC(=O)c3cc(Cl)cc4[nH]ncc34)cc2C1`, the midpoint of inhibition, the IC50, lay at 92.8 µM.

For `COc1cccc(-c2nc3c(C(=O)Nc4ccc5c(c4)CNC5)cc(F)cc3[nH]2)c1`, the IC50 came out at 3.72 µM.

Compound `Cc1c(C(=O)Nc2cc(-c3cccnc3)ccn2)cc(C2CC2)n1C` registered a half-inhibitory concentration (IC50) of 6.22 µM.

With `CC(C)NC(=O)[C@H](Nc1ccc2c(c1)CNC2)c1cc(Cl)cc2[nH]c(-c3ccccc3)nc12`, the 50% inhibitory concentration (IC50) was 7.06 µM and 2.21 µM.

Compound `NCCc1csc2cc(C(=O)Nc3cc([C@H]4CCOC4)ccn3)ccc12` displayed a half-inhibitory concentration (IC50) greater than 99.5 µM.

On to `O=C(NCC(F)F)[C@H](Nc1ccc2c(c1)CNC2)c1cc(Cl)cc(C2CC2)c1`, for which the half-maximal inhibitory concentration (IC50) is 28.5 µM and > 99.5 µM and 23.8 µM.

`NCc1cccc(NC(=O)c2cc(Cl)cc(NC(=O)OCc3ccccc3)c2)c1` had a half-inhibitory concentration (IC50) of 26.8 µM.

In turn, `N#C[C@H](Nc1ccc2c(c1)CNC2)c1cc(Cl)cc(C2CC2)c1` showed an IC50 greater than 99.5 µM.

With `Cn1cc(CCc2nc3c(C(=O)Nc4ccc5c(c4)CNC5)cc(Cl)cc3[nH]2)cn1`, the half-inhibitory concentration (IC50) is 23.7 µM.

`CC(C)(C)c1cc(Br)cc(C(=O)Nc2ccc3c(c2)CNC3)c1` registered a half-inhibitory concentration (IC50) greater than 99.5 µM.

The compound `O=C(Nc1cc(Cl)cc(-c2ccc3[nH]c(C(=O)O)cc3c2)c1)OCc1ccccc1` registered an IC50 of 5 µM.

Take `C=CC[C@H]1NCc2cc(NC(=O)c3cccc4c3CC(=O)N4)ccc21`: the half-inhibitory concentration (IC50) is greater than 99.5 µM.

`O=C(Nc1ccc2c(c1)CNC2)c1ccc2[nH]ccc2c1` came in with a half-maximal inhibitory concentration (IC50) greater than 99.5 µM.

In the case of `N[C@H]1CC[C@H](c2ccc(NC(=O)c3cc(Cl)cc(NC(=O)OCc4ccccc4)c3)cc2)C1`, inhibition was half-maximal at 5.84 µM (IC50).

`CCc1cc(C(=O)Nc2cccc(-n3nn[nH]c3=O)c2)sc1-c1ccc(Cl)cc1`: it took 11.9 µM to reach half-maximal inhibition (IC50).

Turning to `N#C[C@H](Nc1ccc2c(c1)CNC2)c1cc(Cl)cc2[nH]ncc12`, the concentration for half-maximal inhibition (IC50) is greater than 99.5 µM.

Take `COc1cc(-c2cc(NC(=O)c3cc(F)cc4[nH]ncc34)cc3c2CNC3)ccn1`: the midpoint of inhibition, the IC50, lay at 12.9 µM.

`O=C(Nc1ccc2c(c1)CNC2)c1cc(F)cc2[nH]c(-c3ccc(F)cc3)nc12` gave a half-inhibitory concentration (IC50) of 2.96 µM.

In the case of `O=C(NCCC1CC1)[C@H](Nc1ccc2c(c1)CNC2)c1cc(Cl)cc(C2CC2)c1`, the half-inhibitory concentration (IC50) is greater than 99.5 µM.

`O=C(Nc1ccc2c(c1)CNC2)c1cc(F)cc2c1CCC2` yielded an IC50 greater than 99.5 µM.

Compound `O=C(Nc1ccc2c(c1)CNC2)c1cc(F)cc2[nH]ncc12` came in with a 50% inhibitory concentration (IC50) of 23.4 µM.

On to `O=C(Nc1ccc2c(c1)CNC2)c1cc(Cl)cc(C(F)(F)F)n1`, for which inhibition was half-maximal at 10.4 µM (IC50).

In turn, `CC(C)c1nnc(-c2nc3c(C(=O)Nc4ccc5c(c4)CNC5)cc(F)cc3[nH]2)s1` yielded an IC50 of 10.8 µM.

`O=C(Nc1cc(Cl)cc([C@H]2C[C@@H]2c2cccc(C3CCNCC3)c2)c1)OCc1ccccc1` showed an IC50 of 4.79 µM.

Take `CCOCCNC(=O)[C@H](Nc1ccc2c(c1)CNC2)c1cc(Cl)cc2[nH]ncc12`: the IC50 was greater than 99.5 µM.

Take `Clc1cc([C@@H]2C[C@H]2c2cccc(C3CCNCC3)c2)c2cn[nH]c2c1`: half-maximal inhibition (IC50) required 6.45 µM.

The compound `COCCNC(=O)[C@H](Nc1ccc2c(c1)CNC2)c1cc(Cl)cc(C2CC2)c1` displayed an IC50 of 63.4 µM.

With `Cc1ccc(NC(=O)c2cc(Cl)cc(NC(=O)OCc3ccccc3)c2)cc1CN`, half-maximal inhibition (IC50) was put at 57.7 µM.

`Cn1cc(CNC(=O)[C@H](Nc2ccc3c(c2)CNC3)c2cc(Cl)cc(C3CC3)c2)cn1` yielded an IC50 of 81.8 µM.

As to `O=C(Nc1ccc2c(c1)CNC2)c1cccc2[nH]c(=O)[nH]c12`, the concentration for half-maximal inhibition (IC50) came out at 40.8 µM.

As to `O=C(Nc1ccc2c(c1)CNC2)c1cccc2c(C3CNC3)n[nH]c12`, the concentration for half-maximal inhibition (IC50) turned out to be 9.27 µM.

`O=C(Nc1ccc2c(c1)CNC2)c1cc(Cl)cc2c1CCC2` yielded a half-inhibitory concentration (IC50) greater than 99.5 µM.

As for `Clc1cc(CNc2ccc3c(c2)CNC3)c2cn[nH]c2c1`, it took 42.2 µM to reach half-maximal inhibition (IC50).

Take `O=C(Nc1ccc2c(c1)CNC2)c1ccc2c(C3=CCNCC3)csc2c1`: half-maximal inhibition (IC50) required 54.4 µM.

For the compound `O=C1Cc2cc(C(=O)Nc3ccc4c(c3)CNC4)ccc2N1`, the IC50 is 7.13 µM and 5.44 µM.

For `N=C(N)NCCC[C@H](NC(=O)[C@H](Cc1ccc(CN)cc1)NC(=O)c1ccccc1)B(O)O`, the 50% inhibitory concentration (IC50) is 0.819 µM and 0.784 µM and 0.98 µM.

`O=C(Nc1ccc2c(c1)CNC2)c1cc(Br)cc2[nH]c(-c3ccccc3)nc12` gave an IC50 of 1.47 µM.

Take `NCc1cccc([C@H]2C[C@@H]2c2cc(Cl)cc(NC(=O)OCc3ccccc3)c2)c1`: the midpoint of inhibition, the IC50, lay at 7.85 µM.

`O=C1Cc2c(cccc2C(=O)Nc2ccc3c(c2)CNC3)N1` had an IC50 of 14.2 µM.

Compound `NCc1csc2cc(C(=O)Nc3ccc4c(c3)CNC4)ccc12` showed an IC50 of 9.07 µM.

As to `O=C(Nc1cc(Cl)cc(C(=O)Nc2cccc(-n3nn[nH]c3=O)c2)c1)OCc1ccccc1`, the IC50 turned out to be 10.5 µM.

Source of the values: ChEMBL document CHEMBL5604065, “ASAP - DENV-3 NS2B-NS3 protease fluorescence dose response” (2024).
